In US10562912B2 (C&C Research Laboratories, priority 2013, dated 2020):

Key:
Assay type in all cases: cell-based
[1] = system: MDA-MB-231; experiment: Cell growth inhibition assay, breast cancer cell line MDA-MB-231; conditions: Homo sapiens; MDA-MB-231 breast cancer cell line, 5,000 cells/well
[2] = biological target: T1, STAT3 (Homo sapiens, UniProt P40763); experiment: STAT3 reporter gene assay (luciferase), LNCaP stable cell line (pSTAT3-TA-luc), IL-6 stimulation
T1 construct: plasmid pSTAT3-TA-luc), which contains a stably operating STAT3 promoter; endogenous in cells
T1 sequence (P40763 whole entry): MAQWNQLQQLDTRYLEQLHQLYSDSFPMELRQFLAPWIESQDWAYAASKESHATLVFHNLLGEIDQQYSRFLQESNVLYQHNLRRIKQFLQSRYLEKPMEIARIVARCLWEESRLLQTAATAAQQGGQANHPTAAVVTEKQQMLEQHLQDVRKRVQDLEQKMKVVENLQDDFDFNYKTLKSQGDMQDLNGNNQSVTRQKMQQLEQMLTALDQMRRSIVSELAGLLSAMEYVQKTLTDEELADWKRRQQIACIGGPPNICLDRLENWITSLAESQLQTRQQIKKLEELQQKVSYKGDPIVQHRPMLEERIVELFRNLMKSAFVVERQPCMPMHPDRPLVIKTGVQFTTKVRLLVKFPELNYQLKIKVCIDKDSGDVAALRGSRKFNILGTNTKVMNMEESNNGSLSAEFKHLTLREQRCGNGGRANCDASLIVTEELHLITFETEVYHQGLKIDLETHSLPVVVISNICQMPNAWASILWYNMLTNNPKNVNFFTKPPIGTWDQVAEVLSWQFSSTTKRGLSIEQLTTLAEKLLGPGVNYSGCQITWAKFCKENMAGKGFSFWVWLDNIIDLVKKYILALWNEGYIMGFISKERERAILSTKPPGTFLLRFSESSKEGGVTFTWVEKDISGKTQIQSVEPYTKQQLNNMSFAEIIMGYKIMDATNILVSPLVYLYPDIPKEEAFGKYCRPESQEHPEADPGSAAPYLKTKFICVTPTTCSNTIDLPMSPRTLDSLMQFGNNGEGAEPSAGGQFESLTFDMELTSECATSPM
Summary of the method: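 Cytotoxicity was run on a duplicate plate with CellTiter-Glo, while the other plate gave luciferase read-outs from lysed LNCaP pSTAT3-TA-luc reporter cells. Cells were treated with graded compound concentrations plus IL-6 (10 ng/mL final) for 24–48 h in 3% DCC-FBS medium. Unstimulated and stimulated wells served as negative and positive controls.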

[3] = system: LNCaP; experiment: Cell growth inhibition assay, prostate cancer cell line LNCaP (medium with 10 ng/mL IL-6); conditions: Homo sapiens, medium supplemented with 10 ng/mL of IL-6, 10,000 cells/well

Row | Compound | IC50 [1] [µM] | IC50 [2] [µM] | IC50 [3] [µM]
1 | CC(C)(c1cccc(NC(=O)c2cc3ccc(N(CC(N)=O)S(C)(=O)=O)cc3[nH]2)c1)c1cc(O)cc(OC(F)(F)F)c1 [Example 436, 6-(N-(2-amino-2-oxoethyl)methylsulfonamido)-N-(3-(2-(3-hydroxy-5-(trifluoromethoxy)phenyl)propan-2-yl)phenyl)-1H-indole-2-carboxamide] | 4.7 | 5.2 | > 10
2 | CS(=O)(=O)c1ccc2cc(C(=O)Nc3cccc(-c4ccc(F)cc4F)c3)[nH]c2c1 [Example 240, N-(2′,4′-difluoro-[1,1′-biphenyl]-3-yl)-6-(methylsulfonyl)-1H-indole-2-carboxamide] | > 10 | > 10 | > 10
3 | CC(C)(c1ccc(F)cc1)c1cccc(NC(=O)c2cc3ccc(NS(C)(=O)=O)cc3[nH]2)c1 [Example 1, N-(3-(2-(4-fluorophenyl)propan-2-yl)phenyl)-6-(methylsulfonamido)-1H-indole-2-carboxamide] | 0.23 | 0.19 | 2.5
4 | C#Cc1cccc(S(=O)(=O)c2cccc(NC(=O)c3cc4ccc(NS(C)(=O)=O)cc4[nH]3)c2)c1 [Example 416] | 2.6 | 6 | 9
5 | CS(=O)(=O)Nc1ccc2cc(C(=O)Nc3cc(-c4ccc(F)cc4F)cc(N4CCOCC4)c3)[nH]c2c1 [Example 374, N-(2′,4′-difluoro-5-morpholino-[1,1′-biphenyl]-3-yl)-6-(methylsulfonamido)-1H-indole-2-carboxamide] | 2.7 | 6.4 | 9.9
6 | C#Cc1cc(NC(=O)c2cc3ccc(NS(C)(=O)=O)cc3[nH]2)cc(-c2ccc(F)cc2F)c1 [Example 365, N-(5-ethynyl-2′,4′-difluoro-[1,1′-biphenyl]-3-yl)-6-(methylsulfonamido)-1H-indole-2-carboxamide] | 0.32 | 0.4 | 2.8

Continued, values first:

Row | IC50 [1] [µM] | IC50 [2] [µM] | IC50 [3] [µM] | Compound
7 | > 10 | > 10 | > 10 | CS(=O)(=O)Nc1ccc2cc(C(=O)Nc3cc(-c4cccc(O)n4)cc(-c4ccc(F)cc4F)c3)[nH]c2c1 [Example 384, N-(2′,4′-difluoro-5-(6-hydroxypyridin-2-yl)-[1,1′-biphenyl]-3-yl)-6-(methylsulfonamido)-1H-indole-2-carboxamide]
8 | 0.03 | 0.22 | 0.48 | COc1cc(NC(=O)c2cc3ccc(NS(C)(=O)=O)cc3[nH]2)cc(C(C)(C)c2cc(OC)cc(OC(F)(F)F)c2)c1 [Example 13, N-(3-methoxy-5-(2-(3-methoxy-5-(trifluoromethoxy)phenyl)propan-2-yl)phenyl)-6-(methylsulfonamido)-1H-indole-2-carboxamide]
9 | 0.049 | 0.1 | 0.8 | COc1cccc(C(C)(C)c2cccc(NC(=O)c3cc4cc(NS(C)(=O)=O)ccc4s3)c2)c1 [Example 38, N-(3-(2-(3-methoxyphenyl)propan-2-yl)phenyl)-5-(methylsulfonamido)benzo[b]thiophene-2-carboxamide]
10 | 0.44 | 0.76 | 2.4 | Cn1cccc1-c1cc(NC(=O)c2cc3ccc(NS(C)(=O)=O)cc3[nH]2)cc(-c2ccc(F)cc2F)c1 [Example 353, N-(2′,4′-difluoro-5-(1-methyl-1H-pyrrol-2-yl)-[1,1′-biphenyl]-3-yl)-6-(methylsulfonamido)-1H-indole-2-carboxamide]
11 | 0.37 | 4.5 | 3.7 | COc1cc(NC(=O)c2cc3ccc(NS(C)(=O)=O)cc3[nH]2)cc(-c2ccc(F)cc2F)c1 [Example 314, N-(2′,4′-difluoro-5-methoxy-[1,1′-biphenyl]-3-yl)-6-(methylsulfonamido)-1H-indole-2-carboxamide]
12 | 0.37 | 0.43 | 2.9 | CC(C)(c1ccc(F)cc1)c1cccc(NC(=O)c2cc3ccc(NS(C)(=O)=O)cc3s2)c1 [Example 30, N-(3-(2-(4-fluorophenyl)propan-2-yl)phenyl)-6-(methylsulfonamido)benzo[b]thiophene-2-carboxamide]
